Experimental data published in patent publication US20130109758A1, “BISPHENOL DERIVATIVE THERAPEUTICS AND METHODS FOR THEIR USE” (THE UNIVERSITY OF BRITISH COLUMBIA, priority 2010, published 2013).

Molecular target: T1, androgen receptor (AR) (Homo sapiens, UniProt P10275, T878A)
T1 construct: LNCaP cells express endogenous AR and secrete prostate-specific antigen (PSA); endogenous in cells; host or cells: LNCaP human prostate cancer cells
T1 sequence (P10275 1-920 T878A): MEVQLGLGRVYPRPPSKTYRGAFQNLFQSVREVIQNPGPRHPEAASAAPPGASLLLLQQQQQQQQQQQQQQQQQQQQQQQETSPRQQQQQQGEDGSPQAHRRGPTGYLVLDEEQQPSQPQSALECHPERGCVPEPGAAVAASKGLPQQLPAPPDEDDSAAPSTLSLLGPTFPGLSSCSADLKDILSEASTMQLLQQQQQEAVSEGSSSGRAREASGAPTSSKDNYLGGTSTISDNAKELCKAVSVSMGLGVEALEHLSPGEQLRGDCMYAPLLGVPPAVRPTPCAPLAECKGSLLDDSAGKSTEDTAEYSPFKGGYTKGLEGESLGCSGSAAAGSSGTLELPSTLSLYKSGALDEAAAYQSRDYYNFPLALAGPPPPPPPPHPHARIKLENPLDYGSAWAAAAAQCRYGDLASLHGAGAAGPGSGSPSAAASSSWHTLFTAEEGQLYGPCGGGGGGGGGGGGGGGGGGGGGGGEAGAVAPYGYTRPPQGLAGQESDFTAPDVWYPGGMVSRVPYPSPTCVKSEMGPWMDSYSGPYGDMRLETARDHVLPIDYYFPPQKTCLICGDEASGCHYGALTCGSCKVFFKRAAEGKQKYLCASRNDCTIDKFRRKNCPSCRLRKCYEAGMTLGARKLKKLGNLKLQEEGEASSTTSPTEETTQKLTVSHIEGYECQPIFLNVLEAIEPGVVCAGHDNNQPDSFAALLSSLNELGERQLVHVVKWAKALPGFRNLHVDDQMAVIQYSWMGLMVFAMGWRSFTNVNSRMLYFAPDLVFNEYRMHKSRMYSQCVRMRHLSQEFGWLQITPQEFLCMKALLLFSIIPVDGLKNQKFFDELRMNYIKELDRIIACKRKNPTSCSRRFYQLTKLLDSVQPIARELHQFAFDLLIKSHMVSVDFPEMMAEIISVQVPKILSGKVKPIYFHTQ
Assay: LNCaP PSA (6.1 kb)-luciferase assay (R1881-induced)
Type: cell-based
Details: LNCaP PSA (6.1 kb)-luciferase assay, dose response against DMSO and EPI-001 controls (FIGS. 1-6)
From the text: LNCaP cells were employed initially for all experiments because they are well-differentiated human prostate cancer cells in which ligand-independent activation of the AR by FSK has been characterized (Nazareth et al 1996 J. Biol. Chem. 271, 19900-19907; and Sadar 1999 J. Biol. Chem. 274, 7777-7783). LNCaP cells express endogenous AR and secrete prostate-specific antigen (PSA) (Horoszewicz et al 1983 Cancer Res. 43, 1809-1818). LNCaP cells can be grown either as monolayers in cell culture or as tumors in the well-characterized xenograft model that progresses to androgen independence in castrated hosts (Sato et al 1996 J. Steroid Biochem. Mol. Biol. 58, 139-146; Gleave et al 1991 Cancer Res. 51, 3753-3761; Sato et al 1997 Cancer Res. 57, 1584-1589; and Sadar et al 2002 Mol. Cancer. Ther. 1(8), 629-637). […] Small molecules that specifically target the AR-NTD should have no effect on PC3 cells. This means that they should not alter the proliferation of PC3 cells if they specifically block the AR to mediate their inhibitory effects. R1881 was employed since it is stable and avoids problems associated with the labile physiological ligand dihydrotestosterone (DHT). Reporter specificity may be determined using several alternative reporter gene constructs. Some well characterized ARE-driven reporter gene constructs that have been used extensively are the PSA (6.1 kb) enhance/promoter which contains several AREs and is highly inducible by androgens as well as by FSK (Ueda et al 2002 A J. Biol. Chem. 277, 7076-7085) and the ARR3-thymidine kinase (tk)-luciferase, which is an artificial reporter construct that contains three tandem repeats of the rat probasin ARE1 and ARE2 regions upstream of a luciferase reporter (Snoek et al 1996 J. Steroid Biochem. Mol. Biol. 59, 243-250).
LNCaP cells were transiently cotransfected with PSA (6.1 kb)-luciferase (0.25 μg/well) in 24-well plates for 24 h prior to pre-treatment with compounds for 1 hour before the addition of synthetic androgen, R1881 (1 nM) to induce PSA production or vehicle. The total amount of plasmid DNA transfected was normalized to 0.75 μg/well by the addition of the empty vector. After 48 h of incubation with R1881, the cells were harvested, and relative luciferase activity was determined. Test compounds were added to the cells at various concentrations and activity for each treatment was normalized to the predicted maximal activity induction (in the absence of test compounds, vehicle only). Plotting of sigmoidal curves (Boltzmann Function) and IC50 calculations were done using OriginPro 8.1 Software (Northampton, Mass., USA).
Using the LNCaP PSA (6.1 kb)-luciferase assay described above, various compounds described herein were tested against DMSO and EPI-001 controls. In FIG. 1, a comparison is made between EPI-100, EPI-101, EPI-102 and DMSO from 1 to 35 μM. […] In FIG. 3A, EPI-107 is compared to DMSO and EPI-001 at 2.5 μM to 10 μM. In FIG. 3B, EPI-108 is compared to DMSO at 0.5 μM to 35 μM. In FIG. 4A, EPI-114 is compared to DMSO and EPI-001 at 5 μM and 10 μM. In FIG. 4B, EPI-116 is compared to DMSO and EPI-001 at 1 μM to 30 μM.

Row | Structure (SMILES) | androgen receptor inhibitory activity
1 | C#CCOc1ccc(C(=O)c2ccc(O)cc2)cc1 [EPI-106] | showed androgen receptor inhibitory activity
2 | C#CCOc1ccc(C(=O)c2ccc(OCC#C)cc2)cc1 [EPI-109] | showed androgen receptor inhibitory activity
3 | O=C(c1ccc(O)cc1)c1ccc(OCCCCl)cc1 [EPI-117] | showed androgen receptor inhibitory activity
4 | OC(CCl)COc1ccc(Sc2ccc(OCC(O)CCl)cc2)cc1 (stereo not drawn) [EPI-400] | showed androgen receptor inhibitory activity
5 | C#CCOc1ccc(C(=O)c2ccc(OCCCCl)cc2)cc1 [EPI-107] | showed androgen receptor inhibitory activity
6 | C#CCOc1ccc(C(=O)c2ccc(OCCCBr)cc2)cc1 [EPI-108] | showed androgen receptor inhibitory activity
7 | OC(CCl)COc1ccc(-c2ccc(OCC(O)CCl)cc2)cc1 (stereo not drawn) [EPI-3000] | showed androgen receptor inhibitory activity
8 | O=C(c1ccc(OCC(O)CCl)cc1)c1ccc(OCC(O)CCl)cc1 (stereo not drawn) [EPI-114] | showed androgen receptor inhibitory activity
9 | C#CCOc1ccc(C(=O)c2ccc(OCC(O)CO)cc2)cc1 (stereo not drawn) [EPI-111] | showed androgen receptor inhibitory activity
10 | OC(CCl)COc1ccc(Oc2ccc(OCC(O)CCl)cc2)cc1 (stereo not drawn) [EPI-300] | showed androgen receptor inhibitory activity
11 | O=C(c1ccc(OCCCCl)cc1)c1ccc(OCCCCl)cc1 [EPI-116] | showed androgen receptor inhibitory activity

Same assay, conditions: LNCaP cells transfected with PSA (6.1 kb)-luciferase, 1 h pre-treatment with compound, R1881 1 nM, 48 h

Row | Structure (SMILES) | EXPERIMENTAL DATA (activity in the LNCaP PSA (6.1 kb)-luciferase assay)
12 | C#CCOc1ccc(C(=O)c2ccc(OC[C@H](O)CCl)cc2)cc1 | Active
13 | O=C(c1ccc(OCC(O)CCl)cc1)c1ccc(OCC(O)CCl)cc1 (centres unmarked) [drawing 510] | Active
14 | O=C(c1ccc(O)cc1)c1ccc(OCCCCl)cc1 [drawing 512] | Active
15 | OC(CCl)COc1ccc(Oc2ccc(OCC(O)CCl)cc2)cc1 (centres unmarked) [drawing 513] | Active
16 | C#CCOc1ccc(C(=O)c2ccc(OCC(O)CO)cc2)cc1 (centres unmarked) [drawing 509] | Active
17 | C#CCOc1ccc(C(=O)c2ccc(OCC(O)CCl)cc2)cc1 (centres unmarked) | Active
18 | C#CCOc1ccc(C(=O)c2ccc(OC[C@@H](O)CCl)cc2)cc1 | Active
19 | OC(CCl)COc1ccc(-c2ccc(OCC(O)CCl)cc2)cc1 (centres unmarked) [drawing 515] | Active
20 | OC(CCl)COc1ccc(Sc2ccc(OCC(O)CCl)cc2)cc1 (centres unmarked) [drawing 514] | Active
21 | O=C(c1ccc(OCCCCl)cc1)c1ccc(OCCCCl)cc1 [drawing 511] | Active
22 | CC(C)(c1ccc(OCC(O)CO)cc1)c1ccc(OCC(O)CCl)cc1 (centres unmarked) [reference compound] | Active (positive control)
23 | C#CCOc1ccc(C(=O)c2ccc(O)cc2)cc1 [drawing 505] | Active
24 | C#CCOc1ccc(C(=O)c2ccc(OCCCCl)cc2)cc1 [drawing 506] | Active
25 | C#CCOc1ccc(C(=O)c2ccc(OCCCBr)cc2)cc1 [drawing 507] | Active
26 | C#CCOc1ccc(C(=O)c2ccc(OCC#C)cc2)cc1 [drawing 508] | Active
